{"source": "paper PMC10702058", "about": "“Phase I dose escalation study and pilot efficacy analysis of LXI-15029, a novel mTOR dual inhibitor, in Chinese subjects with advanced malignant solid tumors” (BMC Cancer, 2023)", "test": "Plasma pharmacokinetics of LXI-15029 (LC-MS/MS, non-compartmental analysis)", "assay_type": "in vivo, human", "protocol": "Blood samples for PK analysis of LXI-15029 were collected on day 1 (pre-dose, 20 min, 40 min, 1 h, 1.5 h, 2 h, 3 h, 4 h, 6 h, 8 h, 12 h, 24 h, and 48 h), cycle 1 day 8 (pre-dose), cycle 1 day 15 (pre-dose), and cycle 1 day 28 (pre-dose, 20 min, 40 min, 1 h, 1.5 h, 2 h, 3 h, 4 h, 6 h, 8 h, and 12 h). The blood samples were stored at -70°C until testing. The concentration of LXI-15029 in plasma was measured using the validated liquid chromatography-tandem mass spectrometry (LC–MS/MS) method. The concentration–time information of LXI-15029 was summarized based on pre-dose and post-dose data of each patient, to explore the linearity of exposure with single dose and steady-state situations, the time to reach steady state and the predictability of single to multiple doses PK. PK parameters were calculated separately for single and repeated doses using descriptive statistics. PK analysis was performed by Covance Central Laboratory using the validated software Phoenix WinNonlin Version 8.1 (Pharsight, Mountain View, CA). A standard non-compartmental method was used to calculate the peak plasma concentration (Cmax), time to reach the Cmax (tmax), the total area under the concentration–time curve (AUC0-∞), and the elimination half-life (t1/2).", "key": {"[1]": {"details": "150-mg BID group, compared with preclinical data"}, "[2]": {"details": "human, plasma, oral, multiple dose, cycle 1 day 28, 10 mg BID (n = 3), geometric mean (coefficient of variation)"}, "[3]": {"details": "human, plasma, oral, multiple dose, cycle 1 day 28, 20 mg BID (n = 3), geometric mean (coefficient of variation)"}, "[4]": {"details": "human, plasma, oral, multiple dose, cycle 1 day 28, 40 mg BID (n = 3), geometric mean (coefficient of variation)"}, "[5]": {"details": "human, plasma, oral, multiple dose, cycle 1 day 28, 60 mg BID (n = 4), geometric mean (coefficient of variation)"}, "[6]": {"details": "human, plasma, oral, multiple dose, cycle 1 day 28, 80 mg BID (n = 4), geometric mean (coefficient of variation)"}}, "note": "Where two headings read alike, the source gives them in different places.", "data": [{"smiles": "CNC(=O)c1cccc(-c2ccc3c(N4C5CCC4COC5)nc(N4CCOC[C@@H]4C)nc3n2)c1", "note": "[LXI-15029]", "values": [{"measurement": "increase of Cmax and AUC versus dose proportionality", "setting": "10 to 150 mg, single dose day 1 and cycle 1 day 28", "result": "greater than the dose proportionality"}, {"measurement": "exposure relative to the NOAEL in dogs", "setting": "[1]", "result": "fivefold higher"}, {"measurement": "exposure relative to the highest non-severely toxic dose (HNSTD) found in rats", "setting": "[1]", "result": "threefold higher"}, {"measurement": "Cmax ss versus dose", "setting": "cycle 1 day 28, 10 to 150 mg", "result": "increased with the dose increase"}, {"measurement": "Cmin ss, Cav ss, and AUCss versus dose", "setting": "cycle 1 day 28, 10 to 150 mg, except for 80 mg", "result": "increased with the dose increase"}, {"measurement": "exposure (Cmax and AUC) versus dose", "setting": "day 1, 10 to 150 mg, except for 80 mg", "result": "increased with the dose increase"}, {"measurement": "concentration at 28 day", "setting": "human, plasma, oral, 10 mg BID, multiple dose, cycle 1 day 28, 10 mg BID (n = 3), geometric mean (coefficient of variation), read-out: Cav ss", "result": 15.9, "unit": "ng/mL"}, {"measurement": "Tmax at 28 day", "setting": "human, plasma, oral, 10 mg, multiple dose, cycle 1 day 28, 10 mg BID (n = 3), median (min, max)", "result": 1.02, "unit": "h"}, {"measurement": "half-life", "setting": "human, plasma, oral, 10 mg, single dose, cycle 1 day 1, 10 mg BID (n = 3), arithmetic mean ± standard deviation, read-out: t1/2 (converted)", "result": "57 ± 12.3", "unit": "min"}, {"measurement": "Tmax", "setting": "human, plasma, oral, 10 mg, single dose, cycle 1 day 1, 10 mg BID (n = 3), median (min, max), read-out: Tmax", "result": 58.8, "unit": "min"}, {"measurement": "concentration at 28 day", "setting": "human, plasma, oral, 20 mg BID, multiple dose, cycle 1 day 28, 20 mg BID (n = 3), geometric mean (coefficient of variation), read-out: Cav ss", "result": 71.9, "unit": "ng/mL"}, {"measurement": "concentration at 28 day", "setting": "human, plasma, oral, 20 mg BID, multiple dose, cycle 1 day 28, 20 mg BID (n = 3), geometric mean (coefficient of variation), read-out: Cmin ss", "result": 1.61, "unit": "ng/mL"}, {"measurement": "Tmax at 28 day", "setting": "human, plasma, oral, 20 mg, multiple dose, cycle 1 day 28, 20 mg BID (n = 3), median (min, max)", "result": 1.47, "unit": "h"}, {"measurement": "half-life", "setting": "human, plasma, oral, 20 mg, single dose, cycle 1 day 1, 20 mg BID (n = 3), arithmetic mean ± standard deviation, read-out: t1/2 (converted)", "result": "88.2 ± 16.1", "unit": "min"}, {"measurement": "Tmax", "setting": "human, plasma, oral, 20 mg, single dose, cycle 1 day 1, 20 mg BID (n = 3), median (min, max), read-out: Tmax", "result": 60, "unit": "min"}, {"measurement": "concentration at 28 day", "setting": "human, plasma, oral, 40 mg BID, multiple dose, cycle 1 day 28, 40 mg BID (n = 3), geometric mean (coefficient of variation), read-out: Cav ss", "result": 139, "unit": "ng/mL"}, {"measurement": "concentration at 28 day", "setting": "human, plasma, oral, 40 mg BID, multiple dose, cycle 1 day 28, 40 mg BID (n = 3), geometric mean (coefficient of variation), read-out: Cmin ss", "result": 3.74, "unit": "ng/mL"}, {"measurement": "Tmax at 28 day", "setting": "human, plasma, oral, 40 mg, multiple dose, cycle 1 day 28, 40 mg BID (n = 3), median (min, max)", "result": 0.67, "unit": "h"}, {"measurement": "half-life", "setting": "human, plasma, oral, 40 mg, single dose, cycle 1 day 1, 40 mg BID (n = 3), arithmetic mean ± standard deviation, read-out: t1/2 (converted)", "result": "67.8 ± 19.4", "unit": "min"}, {"measurement": "AUC(0-t)", "setting": "human, plasma, oral, 40 mg, single dose, cycle 1 day 1, 40 mg BID (n = 3), geometric mean (coefficient of variation)", "result": 1680, "unit": "ng·h/mL"}, {"measurement": "Tmax", "setting": "human, plasma, oral, 40 mg, single dose, cycle 1 day 1, 40 mg BID (n = 3), median (min, max), read-out: Tmax", "result": 40.8, "unit": "min"}, {"measurement": "concentration at 28 day", "setting": "human, plasma, oral, 60 mg BID, multiple dose, cycle 1 day 28, 60 mg BID (n = 4), geometric mean (coefficient of variation), read-out: Cav ss", "result": 477, "unit": "ng/mL"}, {"measurement": "concentration at 28 day", "setting": "human, plasma, oral, 60 mg BID, multiple dose, cycle 1 day 28, 60 mg BID (n = 4), geometric mean (coefficient of variation), read-out: Cmin ss", "result": 35, "unit": "ng/mL"}, {"measurement": "Tmax at 28 day", "setting": "human, plasma, oral, 60 mg, multiple dose, cycle 1 day 28, 60 mg BID (n = 4), median (min, max)", "result": 0.98, "unit": "h"}, {"measurement": "half-life", "setting": "human, plasma, oral, 60 mg, single dose, cycle 1 day 1, 60 mg BID (n = 4), arithmetic mean ± standard deviation, read-out: t1/2 (converted)", "result": "120 ± 35.9", "unit": "min"}, {"measurement": "Tmax", "setting": "human, plasma, oral, 60 mg, single dose, cycle 1 day 1, 60 mg BID (n = 4), median (min, max), read-out: Tmax", "result": 75, "unit": "min"}, {"measurement": "concentration at 28 day", "setting": "human, plasma, oral, 80 mg BID, multiple dose, cycle 1 day 28, 80 mg BID (n = 4), geometric mean (coefficient of variation), read-out: Cav ss", "result": 435, "unit": "ng/mL"}, {"measurement": "concentration at 28 day", "setting": "human, plasma, oral, 80 mg BID, multiple dose, cycle 1 day 28, 80 mg BID (n = 4), geometric mean (coefficient of variation), read-out: Cmin ss", "result": 6.41, "unit": "ng/mL"}, {"measurement": "Tmax at 28 day", "setting": "human, plasma, oral, 80 mg, multiple dose, cycle 1 day 28, 80 mg BID (n = 4), median (min, max)", "result": 1.08, "unit": "h"}, {"measurement": "half-life", "setting": "human, plasma, oral, 80 mg, single dose, cycle 1 day 1, 80 mg BID (n = 4), arithmetic mean ± standard deviation, read-out: t1/2 (converted)", "result": "79.8 ± 10.4", "unit": "min"}, {"measurement": "Tmax", "setting": "human, plasma, oral, 80 mg, single dose, cycle 1 day 1, 80 mg BID (n = 4), median (min, max), read-out: Tmax", "result": 52.2, "unit": "min"}, {"measurement": "concentration at 28 day", "setting": "human, plasma, oral, 110 mg BID, multiple dose, cycle 1 day 28, 110 mg BID (n = 3), geometric mean (coefficient of variation), read-out: Cav ss", "result": 1080, "unit": "ng/mL"}, {"measurement": "concentration at 28 day", "setting": "human, plasma, oral, 110 mg BID, multiple dose, cycle 1 day 28, 110 mg BID (n = 3), geometric mean (coefficient of variation), read-out: Cmin ss", "result": 152, "unit": "ng/mL"}, {"measurement": "Tmax", "setting": "human, plasma, oral, 110 mg, multiple dose, cycle 1 day 28, 110 mg BID (n = 3), median (min, max), read-out: Tmax ss", "result": 40.2, "unit": "min"}, {"measurement": "half-life", "setting": "human, plasma, oral, 110 mg, single dose, cycle 1 day 1, 110 mg BID (n = 3), arithmetic mean ± standard deviation, read-out: t1/2 (converted)", "result": "88.8 ± 31.9", "unit": "min"}, {"measurement": "Tmax", "setting": "human, plasma, oral, 110 mg, single dose, cycle 1 day 1, 110 mg BID (n = 3), median (min, max), read-out: Tmax", "result": 42, "unit": "min"}, {"measurement": "concentration at 28 day", "setting": "human, plasma, oral, 150 mg BID, multiple dose, cycle 1 day 28, 150 mg BID (n = 4), geometric mean (coefficient of variation), read-out: Cav ss", "result": 2120, "unit": "ng/mL"}, {"measurement": "concentration at 28 day", "setting": "human, plasma, oral, 150 mg BID, multiple dose, cycle 1 day 28, 150 mg BID (n = 4), geometric mean (coefficient of variation), read-out: Cmin ss", "result": 452, "unit": "ng/mL"}, {"measurement": "Tmax", "setting": "human, plasma, oral, 150 mg, multiple dose, cycle 1 day 28, 150 mg BID (n = 4), median (min, max), read-out: Tmax ss", "result": 58.8, "unit": "min"}, {"measurement": "half-life", "setting": "human, plasma, oral, 150 mg, single dose, cycle 1 day 1, 150 mg BID (n = 4), arithmetic mean ± standard deviation, read-out: t1/2 (converted)", "result": "116 ± 42.4", "unit": "min"}, {"measurement": "Tmax", "setting": "human, plasma, oral, 150 mg, single dose, cycle 1 day 1, 150 mg BID (n = 4), median (min, max), read-out: Tmax", "result": 49.2, "unit": "min"}, {"measurement": "half-life", "setting": "human, plasma, oral, after multiple dosings, read-out: arithmetic mean of t1/2 across dose cohorts", "result": "67.8 to 196", "unit": "min"}, {"measurement": "half-life", "setting": "human, plasma, oral, after single dosing, read-out: arithmetic mean of t1/2 across dose cohorts", "result": "57 to 120", "unit": "min"}, {"measurement": "Tmax", "setting": "human, plasma, oral, cycle 1 day 28, dose range 10 to 150 mg, read-out: median range of Tmax ss", "result": "40.2 to 88.2", "unit": "min"}, {"measurement": "Tmax", "setting": "human, plasma, oral, single dose on day 1, across dose groups, read-out: median range of Tmax", "result": "40.8 to 75", "unit": "min"}, {"measurement": "AUC", "setting": "[2]", "result": 191, "unit": "ng·h/mL"}, {"measurement": "Cmax at 28 day", "setting": "[2]", "result": 115, "unit": "ng/mL"}, {"measurement": "AUC", "setting": "[3]", "result": 863, "unit": "ng·h/mL"}, {"measurement": "Cmax at 28 day", "setting": "[3]", "result": 350, "unit": "ng/mL"}, {"measurement": "AUC", "setting": "[4]", "result": 1670, "unit": "ng·h/mL"}, {"measurement": "Cmax at 28 day", "setting": "[4]", "result": 1010, "unit": "ng/mL"}, {"measurement": "AUC", "setting": "[5]", "result": 5730, "unit": "ng·h/mL"}, {"measurement": "Cmax at 28 day", "setting": "[5]", "result": 1690, "unit": "ng/mL"}, {"measurement": "AUC", "setting": "[6]", "result": 5220, "unit": "ng·h/mL"}, {"measurement": "Cmax at 28 day", "setting": "[6]", "result": 2260, "unit": "ng/mL"}]}]}
